Like-named read-outs stand apart in the source and are kept apart here.
Assays:
[1] = test system: Serratia marcescens expressing IMP-1 (CL5741); test: Antibiotic potentiation activity: synergistic concentration (MITC95) with imipenem, OD600 growth; assay type: cell-based; details: for Serratia marcescens expressing IMP-1 (CL5741) MITC95: concentration giving 95% inhibition of bacterial growth; for Serratia marcescens MITC95: Serratia marcescens expressing IMP-1 (CL5741), 95% growth inhibition
Method in brief: (§1)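 Each strain, suspended in saline from overnight colonies and diluted 1:100 into 1.1× CAMHB, is dosed with imipenem at 4 μg/ml (or 1 μg/ml) plus compound, incubated 22–24 h at 35 °C and read by absorbance.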

[2] = test system: Escherichia coli expressing NDM-1 (CLB30016); test: as above; assay type: cell-based; details: for Escherichia coli expressing NDM-1 (CLB 30016) MITC95: concentration giving 95% inhibition of bacterial growth; for Escherichia coli MITC95: Escherichia coli expressing NDM-1 (CLB30016), 95% growth inhibition
Method in brief: as §1

[3] = test system: Klebsiella pneumoniae expressing VIM-1 (IHMA599644); test: as above; assay type: cell-based; details: for Klebsiella pneumoniae expressing VIM-1 (IHMA 599644) MITC95: concentration giving 95% inhibition of bacterial growth; for Klebsiella pneumoniae MITC95: Klebsiella pneumoniae expressing VIM-1 (IHMA599644), 95% growth inhibition
Method in brief: as §1

[4] = target: VIM-1 (Pseudomonas aeruginosa (strain ATCC 15692 / DSM 22644 / CIP 104116 / JCM 14847 / LMG 12228 / 1C / PRS 101 / PAO1), UniProt A0A0F7KYQ8); test: Enzyme activity: determination of IC50, fluorescence assay with CCF2-FA substrate (VIM-1); assay type: biochemical
Protocol: Enzyme Activity: Determination of IC50
(§2) The Class B enzyme activities were measured in the presence of the test inhibitor in a fluorescence assay against a commercially available substrate consisting of a cephalosporin core linking 7-hydroxycoumarin to fluorescein (CCF2-FA). The enzyme (NDM-1, IMP-1 or VIM-1) and the substrate were diluted in 100 mM KH2PO4 buffer (pH 7) containing 0.005% Tween-20 and 10 μM ZnSO4. […] The test inhibitor was dissolved in dimethylsulfoxide and diluted 1:50 in the assay, resulting in a final concentration range of 20 uM to 0.00063 uM. In a 384-well microplate, the test inhibitor was incubated with the metallo-β-lactamase enzyme and the substrate for 2 hours at 25° C. Fluorescence at 460 nm following excitation at 405 nm was measured. The IC50 value was determined from semi-logarithmic plots of enzyme inhibition versus inhibitor concentration, with a curve generated using a 4-parameter fit.

[5] = target: IMP-1 (Serratia marcescens, UniProt P52699); test: biochemical; assay type: biochemical; details: read-out: IMP-1 IC50
Sequence of IMP-1 (P52699 whole entry, looked up): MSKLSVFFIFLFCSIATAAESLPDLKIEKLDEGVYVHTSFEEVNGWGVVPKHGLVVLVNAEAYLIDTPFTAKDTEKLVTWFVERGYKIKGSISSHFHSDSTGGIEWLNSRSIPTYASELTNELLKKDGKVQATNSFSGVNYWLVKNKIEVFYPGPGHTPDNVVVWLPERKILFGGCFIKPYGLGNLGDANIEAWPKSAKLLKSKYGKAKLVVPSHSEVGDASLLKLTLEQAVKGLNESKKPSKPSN

[6] = target: NDM-1 (Klebsiella pneumoniae, UniProt C7C422); test: biochemical; assay type: biochemical; details: read-out: NDM-1 IC50
Sequence of NDM-1 (C7C422 whole entry, looked up, species assumed): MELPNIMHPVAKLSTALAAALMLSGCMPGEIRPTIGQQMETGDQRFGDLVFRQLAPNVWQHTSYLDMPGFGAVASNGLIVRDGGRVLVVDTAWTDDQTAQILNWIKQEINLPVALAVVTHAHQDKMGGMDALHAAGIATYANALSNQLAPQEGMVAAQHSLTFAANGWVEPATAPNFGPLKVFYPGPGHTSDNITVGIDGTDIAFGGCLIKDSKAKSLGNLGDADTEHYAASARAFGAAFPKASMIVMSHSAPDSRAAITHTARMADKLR
Protocol: Enzyme Activity: Determination of IC50
as §2

[7] = VIM-1 IC50, fluorescence assay with CCF2-FA substrate
[8] = fluorescence assay with CCF2-FA substrate
[9] = fluorescence assay with CCF2-FA substrate, read-out: VIM-1 IC50
[10] = VIM-1 IC50, VIM-1 enzyme, CCF2-FA fluorescence assay
[11] = IMP-1 enzyme, CCF2-FA fluorescence assay
[12] = NDM-1 enzyme, CCF2-FA fluorescence assay
[13] = VIM-1 enzyme, CCF2-FA fluorescence assay, read-out: VIM-1 IC50

Structure (SMILES)	Serratia marcescens expressing IMP-1 (CL5741) MITC95 [1]	Escherichia coli expressing NDM-1 (CLB 30016) MITC95 [2]	Klebsiella pneumoniae expressing VIM-1 (IHMA 599644) MITC95 [3]	IC50 [4, 7]	IC50 [5, 8]	IC50 [6, 8]	IC50 [4, 9]	Serratia marcescens MITC95 [1]	Escherichia coli MITC95 [2]	Klebsiella pneumoniae MITC95 [3]	IC50 [4, 10]	IC50 [5, 11]	IC50 [6, 12]	IC50 [4, 13]
Cn1cncc1C1CCN(c2ccnc(S(N)(=O)=O)c2-c2nnn[nH]2)CC1 [Example 230, 4-[4-(1-methyl-1H-imidazol-5-yl)piperidin-1-yl]-3-(1H-tetrazol-5-yl)pyridine-2-sulfonamide]	18.75 µM	1.563 µM	37.5 µM	164 nM	797 nM	206 nM	–	–	–	–	–	–	–	–
NS(=O)(=O)c1nccc(N2CCC(Oc3ncccn3)CC2)c1-c1nnn[nH]1 [Example 231, 4-[4-(pyrimidin-2-yloxy)piperidin-1-yl]-3-(1H-tetrazol-5-yl)pyridine-2-sulfonamide]	18.75 µM	4.688 µM	>200 µM	–	423 nM	10.8 nM	326 nM	–	–	–	–	–	–	–
CN(c1ccnc(S(N)(=O)=O)c1-c1nnn[nH]1)C1CCCCC1 [Example 232, 4-[cyclohexyl(methyl)amino]-3-(1H-tetrazol-5-yl)pyridine-2-sulfonamide]	>200 µM	50 µM	150 µM	166 nM	7640 nM	892 nM	–	–	–	–	–	–	–	–
NS(=O)(=O)c1nccc(N2CCC(Cn3ccnc3)CC2)c1-c1nnn[nH]1 [Example 233, 4-[4-(1H-imidazol-1-ylmethyl)piperidin-1-yl]-3-(1H-tetrazol-5-yl)pyridine-2-sulfonamide]	6.25 µM	0.7813 µM	37.5 µM	–	195 nM	60.9 nM	97.6 nM	–	–	–	–	–	–	–
NS(=O)(=O)c1nccc(NC2CCCCC2)c1-c1nnn[nH]1 [Example 234, 4-(cyclohexylamino)-3-(1H-tetrazol-5-yl)pyridine-2-sulfonamide]	100 µM	4.688 µM	>200 µM	–	1450 nM	24.5 nM	1170 nM	–	–	–	–	–	–	–
NS(=O)(=O)c1nccc(NCCC2CCCCC2)c1-c1nnn[nH]1 [Example 236, 4-[(2-cyclohexylethyl)amino]-3-(1H-tetrazol-5-yl)pyridine-2-sulfonamide]	25 µM	18.75 µM	>200 µM	–	223 nM	38.6 nM	188 nM	–	–	–	–	–	–	–
NS(=O)(=O)c1nccc(NCCc2ccccc2)c1-c1nnn[nH]1 [Example 237, 4-[(2-phenylethyl)amino]-3-(1H-tetrazol-5-yl)pyridine-2-sulfonamide]	125 µM	18.75 µM	>200 µM	–	581 nM	102 nM	239 nM	–	–	–	–	–	–	–
NS(=O)(=O)c1nccc(N2CCC(Cc3ccncc3)CC2)c1-c1nnn[nH]1 [Example 238, 4-[4-(pyridin-4-ylmethyl)piperidin-1-yl]-3-(1H-tetrazol-5-yl)pyridine-2-sulfonamide]	9.375 µM	3.125 µM	125 µM	96.9 nM	188 nM	30.8 nM	–	–	–	–	–	–	–	–
NS(=O)(=O)c1nccc(N2CCC(N3CCOCC3)CC2)c1-c1nnn[nH]1 [Example 239, 4-(4-morpholin-4-ylpiperidin-1-yl)-3-(1H-tetrazol-5-yl)pyridine-2-sulfonamide]	50 µM	1.563 µM	50 µM	–	3710 nM	383 nM	945 nM	–	–	–	–	–	–	–
NS(=O)(=O)c1nccc(N2CCC(c3ncc[nH]3)CC2)c1-c1nnn[nH]1 [Example 240, 4-[4-(1H-imidazol-2-yl)piperidin-1-yl]-3-(1H-tetrazol-5-yl)pyridine-2-sulfonamide]	37.5 µM	1.172 µM	25 µM	938 nM	3410 nM	418 nM	–	–	–	–	–	–	–	–
NS(=O)(=O)c1nccc(N2CCC(c3nnc4ccccn34)CC2)c1-c1nnn[nH]1 [Example 241, 3-(1H-tetrazol-5-yl)-4-(4-[1,2,4]triazolo[4,3-a]pyridin-3-ylpiperidin-1-yl)pyridine-2-sulfonamide]	–	–	–	–	–	–	–	12.5 µM	1.563 µM	>200 µM	774 nM	335 nM	67.7 nM	–
NS(=O)(=O)c1nccc(N2CCC(O)CC2)c1-c1nnn[nH]1 [Example 242, 4-(4-hydroxypiperidin-1-yl)-3-(1H-tetrazol-5-yl)pyridine-2-sulfonamide]	–	–	–	–	–	–	–	25 µM	0.3906 µM	6.25 µM	–	1120 nM	103 nM	270 nM
NS(=O)(=O)c1nccc(N2CCCC(Cc3cccnc3)C2)c1-c1nnn[nH]1 (stereo not drawn) [Example 243, 4-[3-(pyridin-3-ylmethyl)piperidin-1-yl]-3-(1H-tetrazol-5-yl)pyridine-2-sulfonamide]	–	–	–	–	–	–	–	100 µM	18.75 µM	>200 µM	–	1510 nM	67.1 nM	204 nM
CC(O)C1CCN(c2ccnc(S(N)(=O)=O)c2-c2nnn[nH]2)CC1 (stereo not drawn) [Example 244, 4-[4-(1-hydroxyethyl)piperidin-1-yl]-3-(1H-tetrazol-5-yl)pyridine-2-sulfonamide]	–	–	–	–	–	–	–	18.75 µM	1.563 µM	37.5 µM	–	682 nM	51.2 nM	125 nM
NS(=O)(=O)c1nccc(-n2cnc3ccccc32)c1-c1nn[nH]n1 [Example 246, 4-(1H-benzo[d]imidazol-1-yl)-3-(2H-tetrazol-5-yl)pyridine-2-sulfonamide]	–	–	–	–	–	–	–	150 µM	0.5859 µM	12.5 µM	–	2800 nM	30.2 nM	78.3 nM
Cc1cnc(-c2cccc(S(N)(=O)=O)c2-c2nn[nH]n2)cn1 [Example 248, 3-(5-Methylpyrazin-2-yl)-2-(2H-tetrazol-5-yl)benzenesulfonamide]	–	–	–	–	–	–	–	4.688 µM	0.1875 µM	12.5 µM	–	134 nM	4.49 nM	132 nM
NS(=O)(=O)c1c(Cc2ccccc2)ccc(-c2ccc(C3CCNCC3)cc2)c1-c1nnn[nH]1 [Example 261]	–	–	–	–	–	–	–	1.563 µM	6.25 µM	100 µM	–	1.72 nM	6.59 nM	10.2 nM
Cc1ccc(-c2ccc(Cl)c(S(N)(=O)=O)c2-c2nn[nH]n2)cc1 [Example 263, 4-chloro-4′-methyl-2-(2H-tetrazol-5-yl)-[1,1′-biphenyl]-3-sulfonamide]	–	–	–	–	–	–	–	0.7813 µM	0.7813 µM	18.75 µM	–	21 nM	3.27 nM	11.5 nM
Nc1ccc(-c2ccc(Br)c(S(N)(=O)=O)c2-c2nn[nH]n2)cn1 [Example 264, 3-(6-aminopyridin-3-yl)-6-bromo-2-(2H-tetrazol-5-yl)benzenesulfonamide]	–	–	–	–	–	–	–	0.3828 µM	0.04688 µM	1.781 µM	–	16.9 nM	4.61 nM	4.4 nM
Nc1ccc(-c2ccc(C(F)(F)F)c(S(N)(=O)=O)c2-c2nn[nH]n2)cn1 [Example 265, 3-(6-aminopyridin-3-yl)-2-(2H-tetrazol-5-yl)-6-(trifluoromethyl)benzenesulfonamide]	–	–	–	–	–	–	–	0.4271 µM	0.125 µM	4.775 µM	1.26 nM	6.93 nM	2.65 nM	–
NS(=O)(=O)c1c(Br)ccc(-c2ccnc3ccccc23)c1-c1nn[nH]n1 [Example 266, 6-bromo-3-(quinolin-4-yl)-2-(2H-tetrazol-5-yl)benzenesulfonamide]	–	–	–	–	–	–	–	0.7813 µM	3.125 µM	9.375 µM	–	12.6 nM	2.08 nM	0.689 nM

— US9708336B2, “Metallo-beta-lactamase inhibitors” (priority 2014, dated 2017)
